ChEMBL document CHEMBL1201862, “PubChem BioAssay data set” (2004)
Active and inactive are the calls of the source.

What was measured:
[1] = target: Glutathione-S-transferase (Schistosoma japonicum, UniProt Q26513); test: biotin-GST/anti-GST TR-FRET signal inhibitors, dose response, artefact control for Vif-APOBEC3G degradation inhibitor project, biochemical (AID 1117362); assay type: functional
[2] = NIH-3T3 fibroblast cytotoxicity, dose response, cytotoxicity control, cell-based, fluorescence, Alamar Blue, secondary assay (AID 2327); assay type: functional;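 note: NIH-3T3 mouse fibroblasts cultured with fluconazole at 8 µg/mL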
[3] = target: Induced myeloid leukemia cell differentiation protein Mcl-1 (Homo sapiens, UniProt Q07820); assay type: functional
Sequence of Induced myeloid leukemia cell differentiation protein Mcl-1 (Q07820 whole entry): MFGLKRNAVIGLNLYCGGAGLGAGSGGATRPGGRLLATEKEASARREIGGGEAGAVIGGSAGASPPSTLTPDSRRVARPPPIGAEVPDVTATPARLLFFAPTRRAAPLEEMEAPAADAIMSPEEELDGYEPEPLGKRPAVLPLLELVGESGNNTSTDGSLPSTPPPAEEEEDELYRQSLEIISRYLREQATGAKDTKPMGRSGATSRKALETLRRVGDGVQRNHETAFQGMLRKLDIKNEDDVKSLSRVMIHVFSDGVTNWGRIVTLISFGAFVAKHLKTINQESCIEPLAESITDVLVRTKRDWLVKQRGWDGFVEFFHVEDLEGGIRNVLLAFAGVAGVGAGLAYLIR

Genome polyprotein = Genome polyprotein (dengue virus type 2, UniProt P29990); test: Dengue-2 NS5 methyltransferase inhibitors, primary screen, biochemical, confirmation dose response (AID 588689); assay type: functional
Sequence of Genome polyprotein (P29990 2492-3391 limits assumed): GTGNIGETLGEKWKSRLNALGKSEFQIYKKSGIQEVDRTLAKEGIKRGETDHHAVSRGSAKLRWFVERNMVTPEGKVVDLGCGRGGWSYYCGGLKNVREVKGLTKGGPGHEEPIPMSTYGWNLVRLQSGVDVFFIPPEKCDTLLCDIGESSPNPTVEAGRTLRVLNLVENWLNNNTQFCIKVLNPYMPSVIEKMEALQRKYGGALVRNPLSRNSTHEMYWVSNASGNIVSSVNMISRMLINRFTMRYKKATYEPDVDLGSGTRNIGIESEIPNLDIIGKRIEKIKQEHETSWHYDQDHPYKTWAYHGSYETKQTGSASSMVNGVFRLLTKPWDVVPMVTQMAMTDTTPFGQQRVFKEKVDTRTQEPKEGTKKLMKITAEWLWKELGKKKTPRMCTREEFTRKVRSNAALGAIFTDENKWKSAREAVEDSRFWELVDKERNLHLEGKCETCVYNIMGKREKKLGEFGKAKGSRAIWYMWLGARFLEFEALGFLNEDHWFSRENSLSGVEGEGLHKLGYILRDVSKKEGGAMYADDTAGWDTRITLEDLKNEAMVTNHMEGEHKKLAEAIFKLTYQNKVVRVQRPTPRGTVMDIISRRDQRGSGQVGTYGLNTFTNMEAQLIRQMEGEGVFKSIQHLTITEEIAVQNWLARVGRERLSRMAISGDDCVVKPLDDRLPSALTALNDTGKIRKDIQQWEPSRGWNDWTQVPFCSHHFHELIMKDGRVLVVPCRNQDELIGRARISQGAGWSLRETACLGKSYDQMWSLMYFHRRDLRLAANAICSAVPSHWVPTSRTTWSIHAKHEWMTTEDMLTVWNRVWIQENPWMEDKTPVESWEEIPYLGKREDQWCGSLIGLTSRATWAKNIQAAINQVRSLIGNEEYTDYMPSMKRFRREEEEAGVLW

Nonstructural protein 1 = Nonstructural protein 1 (Influenza A virus, UniProt Q194T2); assay type: functional, Influenza A virus (A/California/07/2009(H1N1))
Sequence of Nonstructural protein 1 (Q194T2 whole entry): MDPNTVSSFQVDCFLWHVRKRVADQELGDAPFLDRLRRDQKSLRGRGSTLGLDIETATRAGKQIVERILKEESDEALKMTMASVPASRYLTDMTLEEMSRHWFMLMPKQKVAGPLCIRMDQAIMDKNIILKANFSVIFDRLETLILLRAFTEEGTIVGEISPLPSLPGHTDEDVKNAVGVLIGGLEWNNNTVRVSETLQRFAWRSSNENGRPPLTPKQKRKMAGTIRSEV

[4] = target: T1, Mannose-6-phosphate isomerase (Homo sapiens, UniProt P34949); test: inhibitors of human PMI, primary screen, biochemical, fluorescence intensity, coupled assay (AID 1209)
T1 sequence (P34949 whole entry): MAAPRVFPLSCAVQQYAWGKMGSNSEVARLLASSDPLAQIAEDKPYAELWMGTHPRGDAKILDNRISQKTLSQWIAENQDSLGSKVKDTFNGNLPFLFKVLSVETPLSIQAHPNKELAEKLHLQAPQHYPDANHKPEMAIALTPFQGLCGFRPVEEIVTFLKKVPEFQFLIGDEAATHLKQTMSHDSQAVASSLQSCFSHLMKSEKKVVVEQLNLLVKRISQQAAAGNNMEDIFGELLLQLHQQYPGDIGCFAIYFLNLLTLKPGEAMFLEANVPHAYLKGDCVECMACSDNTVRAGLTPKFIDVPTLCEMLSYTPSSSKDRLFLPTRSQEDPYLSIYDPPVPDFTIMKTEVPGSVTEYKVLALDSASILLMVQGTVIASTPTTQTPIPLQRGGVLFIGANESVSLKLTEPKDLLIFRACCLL

[5] = target: Eukaryotic translation initiation factor 4E (Mus musculus, UniProt P63073); test: eIF4E–eIF4G protein interaction inhibitors, dose response, biochemical, TR-FRET (AID 855); assay type: functional;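 note: potency for disrupting eIF4E binding to eIF4GI seen as loss of FRET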
Sequence of Eukaryotic translation initiation factor 4E (P63073 whole entry): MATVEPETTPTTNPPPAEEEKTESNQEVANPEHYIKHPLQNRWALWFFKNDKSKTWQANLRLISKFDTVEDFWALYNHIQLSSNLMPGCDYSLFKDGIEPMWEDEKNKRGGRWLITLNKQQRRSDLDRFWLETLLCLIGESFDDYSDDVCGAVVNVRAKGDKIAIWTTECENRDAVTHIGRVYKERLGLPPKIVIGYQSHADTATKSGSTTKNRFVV

[6] = target: T1, Mannose-6-phosphate isomerase; test: human PMI inhibitors, high substrate, primary screen, biochemical, fluorescence intensity, high mannose 6-phosphate (AID 1220)
[7] = C. albicans growth with fluconazole, confirmation, fluorescence, retest (AID 2467); assay type: functional, cell-based
[8] = target: Tyrosyl-DNA phosphodiesterase 2 (Homo sapiens, UniProt O95551); test: human TDP2 enzyme inhibitors, dose response, biochemical, epi absorbance, IC50 (AID 743297)
Sequence of Tyrosyl-DNA phosphodiesterase 2 (O95551 whole entry): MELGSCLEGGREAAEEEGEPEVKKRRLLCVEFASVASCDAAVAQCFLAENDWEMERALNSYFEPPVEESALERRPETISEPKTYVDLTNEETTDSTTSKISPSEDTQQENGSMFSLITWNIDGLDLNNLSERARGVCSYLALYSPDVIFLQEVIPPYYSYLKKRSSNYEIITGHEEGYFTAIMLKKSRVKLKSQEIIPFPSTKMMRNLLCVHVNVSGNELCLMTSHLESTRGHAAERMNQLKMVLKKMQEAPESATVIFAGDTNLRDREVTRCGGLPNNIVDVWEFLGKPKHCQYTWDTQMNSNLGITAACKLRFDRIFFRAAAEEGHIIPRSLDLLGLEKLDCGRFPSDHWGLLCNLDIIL

Caspase-3 [9] = target: T2, Caspase-3 (Homo sapiens, UniProt P42574); test: caspase-3 enzyme inhibitors, selectivity check, dose response, selectivity assay for caspase-6 allosteric inhibitor project, biochemical, fluorescence, cherry-picked samples (AID 743291)
T2 sequence (P42574 whole entry): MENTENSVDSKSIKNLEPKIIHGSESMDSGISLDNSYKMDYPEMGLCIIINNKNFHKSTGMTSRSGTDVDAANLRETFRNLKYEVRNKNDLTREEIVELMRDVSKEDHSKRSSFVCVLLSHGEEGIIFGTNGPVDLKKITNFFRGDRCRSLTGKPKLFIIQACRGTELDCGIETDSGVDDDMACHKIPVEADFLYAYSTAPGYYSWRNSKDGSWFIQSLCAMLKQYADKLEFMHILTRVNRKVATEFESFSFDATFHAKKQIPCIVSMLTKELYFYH

Caspase-3 [10] = target: T2, Caspase-3; assay type: functional
[11] = target: T3, Sentrin-specific protease 6 (Homo sapiens, UniProt Q9GZR1); assay type: functional;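 note: Luminescence-based dose-response confirmatory assay of SENP6 inhibition, following up an ultra-high-throughput screen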
T3 sequence (Q9GZR1 whole entry): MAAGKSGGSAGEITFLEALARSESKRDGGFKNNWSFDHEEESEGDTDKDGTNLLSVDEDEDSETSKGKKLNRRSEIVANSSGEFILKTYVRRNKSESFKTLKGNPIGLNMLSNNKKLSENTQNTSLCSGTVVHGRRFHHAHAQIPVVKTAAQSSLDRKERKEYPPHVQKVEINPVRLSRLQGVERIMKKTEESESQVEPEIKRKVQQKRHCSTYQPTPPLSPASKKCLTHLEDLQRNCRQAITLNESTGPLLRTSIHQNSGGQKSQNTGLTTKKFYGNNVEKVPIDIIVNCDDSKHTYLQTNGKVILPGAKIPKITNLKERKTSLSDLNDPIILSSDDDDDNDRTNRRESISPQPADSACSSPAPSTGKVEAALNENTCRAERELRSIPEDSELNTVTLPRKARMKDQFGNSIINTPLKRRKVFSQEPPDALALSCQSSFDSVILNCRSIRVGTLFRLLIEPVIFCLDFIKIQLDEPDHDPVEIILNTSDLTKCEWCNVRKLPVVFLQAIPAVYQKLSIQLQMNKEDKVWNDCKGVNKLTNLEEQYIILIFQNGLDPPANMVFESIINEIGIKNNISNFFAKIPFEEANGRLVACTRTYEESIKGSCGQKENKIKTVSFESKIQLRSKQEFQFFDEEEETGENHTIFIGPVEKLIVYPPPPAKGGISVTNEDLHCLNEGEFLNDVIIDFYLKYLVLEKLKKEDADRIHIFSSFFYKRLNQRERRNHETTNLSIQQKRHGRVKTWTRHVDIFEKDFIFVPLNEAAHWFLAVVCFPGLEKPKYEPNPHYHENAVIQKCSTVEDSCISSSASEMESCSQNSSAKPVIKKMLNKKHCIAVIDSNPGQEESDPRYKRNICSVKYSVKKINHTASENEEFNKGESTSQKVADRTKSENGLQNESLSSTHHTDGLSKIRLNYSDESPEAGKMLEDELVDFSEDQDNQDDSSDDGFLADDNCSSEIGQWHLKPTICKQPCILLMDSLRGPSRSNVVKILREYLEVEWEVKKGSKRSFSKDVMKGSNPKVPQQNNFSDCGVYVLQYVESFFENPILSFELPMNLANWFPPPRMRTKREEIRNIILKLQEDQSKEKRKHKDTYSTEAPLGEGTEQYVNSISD

Caspase-9 = Caspase-9 (Homo sapiens, UniProt P55211); test: caspase-9 enzyme inhibition, dose response, selectivity assay for caspase-6 inhibitor project, biochemical, fluorescence, plate reader, cherry-picked samples (AID 743293)
Sequence of Caspase-9 (P55211 1-315 limits assumed): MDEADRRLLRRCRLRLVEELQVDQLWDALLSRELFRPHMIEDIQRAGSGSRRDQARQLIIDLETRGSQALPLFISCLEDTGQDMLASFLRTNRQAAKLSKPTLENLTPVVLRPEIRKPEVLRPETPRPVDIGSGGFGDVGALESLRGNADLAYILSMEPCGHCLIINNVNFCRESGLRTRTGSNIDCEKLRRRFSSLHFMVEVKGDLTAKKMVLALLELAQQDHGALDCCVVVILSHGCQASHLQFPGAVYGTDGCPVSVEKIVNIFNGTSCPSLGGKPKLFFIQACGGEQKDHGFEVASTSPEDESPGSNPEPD
Sequence of Caspase-9 (P55211 331-416 limits assumed): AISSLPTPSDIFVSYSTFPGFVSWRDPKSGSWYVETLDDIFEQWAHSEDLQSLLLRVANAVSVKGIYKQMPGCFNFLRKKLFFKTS

[12] = target: T4, Sentrin-specific protease 7 (Homo sapiens, UniProt Q9BQF6); assay type: functional;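 note: Luminescence-based dose-response confirmation of ultra-high-throughput screening hits, measuring inhibition of SENP7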
T4 sequence (Q9BQF6 whole entry): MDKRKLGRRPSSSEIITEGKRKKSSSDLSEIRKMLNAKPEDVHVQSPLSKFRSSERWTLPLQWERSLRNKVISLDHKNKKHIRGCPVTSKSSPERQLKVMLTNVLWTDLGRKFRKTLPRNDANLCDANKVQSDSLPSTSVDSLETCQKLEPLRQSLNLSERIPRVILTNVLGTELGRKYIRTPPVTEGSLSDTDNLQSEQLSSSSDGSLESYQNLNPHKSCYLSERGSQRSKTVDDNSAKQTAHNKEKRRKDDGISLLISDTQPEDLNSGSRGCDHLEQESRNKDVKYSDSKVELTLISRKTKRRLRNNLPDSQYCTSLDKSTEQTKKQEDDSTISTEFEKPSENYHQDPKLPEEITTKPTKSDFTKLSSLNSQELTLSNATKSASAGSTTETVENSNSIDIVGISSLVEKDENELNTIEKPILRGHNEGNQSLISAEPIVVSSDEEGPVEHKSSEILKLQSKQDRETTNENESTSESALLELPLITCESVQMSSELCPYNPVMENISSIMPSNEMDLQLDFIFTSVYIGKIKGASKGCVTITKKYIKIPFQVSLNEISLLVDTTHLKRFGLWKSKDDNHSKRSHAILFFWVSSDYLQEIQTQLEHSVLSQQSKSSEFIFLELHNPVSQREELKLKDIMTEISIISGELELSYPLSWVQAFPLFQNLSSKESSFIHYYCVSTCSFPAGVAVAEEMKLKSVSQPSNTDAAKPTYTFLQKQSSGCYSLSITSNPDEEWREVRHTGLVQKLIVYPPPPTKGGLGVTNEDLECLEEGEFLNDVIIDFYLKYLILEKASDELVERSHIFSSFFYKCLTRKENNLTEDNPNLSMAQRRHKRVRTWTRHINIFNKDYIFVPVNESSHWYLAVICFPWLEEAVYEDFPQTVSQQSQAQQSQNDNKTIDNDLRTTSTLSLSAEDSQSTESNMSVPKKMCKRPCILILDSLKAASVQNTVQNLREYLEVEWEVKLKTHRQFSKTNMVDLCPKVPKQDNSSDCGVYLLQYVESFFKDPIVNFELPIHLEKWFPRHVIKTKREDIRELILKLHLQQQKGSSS

[13] = target: T5, Sentrin-specific protease 8 (Homo sapiens, UniProt Q96LD8); assay type: functional;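 note: luminescence read-out of SENP8 inhibition, dose-response confirmation following an ultra-high-throughput screen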
T5 sequence (Q96LD8 whole entry): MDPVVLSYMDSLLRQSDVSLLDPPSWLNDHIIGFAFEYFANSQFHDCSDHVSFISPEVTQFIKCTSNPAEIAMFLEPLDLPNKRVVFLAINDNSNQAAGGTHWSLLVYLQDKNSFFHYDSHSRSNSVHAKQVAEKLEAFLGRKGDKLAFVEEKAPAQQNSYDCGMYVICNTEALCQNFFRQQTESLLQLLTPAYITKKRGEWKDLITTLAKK

Caspase-8 = Caspase-8 (Homo sapiens, UniProt Q14790); test: caspase-8 inhibition counter-screen, dose response, selectivity assay for caspase-6 inhibitor project, biochemical, Z-IETD-R110 fluorescence, cherry-picked samples (AID 743294)
Sequence of Caspase-8 (Q14790 217-374 limits assumed): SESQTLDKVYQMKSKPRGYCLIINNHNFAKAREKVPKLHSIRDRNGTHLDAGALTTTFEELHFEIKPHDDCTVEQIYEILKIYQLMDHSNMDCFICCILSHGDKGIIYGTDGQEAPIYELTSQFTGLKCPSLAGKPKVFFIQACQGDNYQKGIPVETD
Sequence of Caspase-8 (Q14790 385-479 limits assumed): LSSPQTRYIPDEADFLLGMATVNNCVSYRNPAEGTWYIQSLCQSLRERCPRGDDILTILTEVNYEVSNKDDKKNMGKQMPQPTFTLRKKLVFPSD

H9c2 = test: cells; assay type: functional, cell-based; conditions: Rattus norvegicus, H9c2, Myocardium;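 note: confirmatory concentration-response retest of ultra-high-throughput screening hits for modulation of myocardial damage; cell death induced by hydrogen peroxide oxidative stress; compound pretreatment for 60 min then peroxide exposure for 2 h; potency is for protecting the cells against peroxide damage rather than for killing them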
Caspase-7 = Caspase-7 (Homo sapiens, UniProt P55210); test: human caspase-7 inhibitors, dose response, selectivity assay for caspase-6 inhibitor project, biochemical, DEVD-R110 fluorescence, cherry-pick (AID 743295)
Sequence of Caspase-7 (P55210 24-198 limits assumed): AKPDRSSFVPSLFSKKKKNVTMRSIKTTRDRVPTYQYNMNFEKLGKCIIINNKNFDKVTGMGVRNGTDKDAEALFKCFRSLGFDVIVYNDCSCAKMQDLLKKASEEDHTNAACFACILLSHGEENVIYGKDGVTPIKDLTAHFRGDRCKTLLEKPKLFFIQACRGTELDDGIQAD
Sequence of Caspase-7 (P55210 207-303 limits assumed): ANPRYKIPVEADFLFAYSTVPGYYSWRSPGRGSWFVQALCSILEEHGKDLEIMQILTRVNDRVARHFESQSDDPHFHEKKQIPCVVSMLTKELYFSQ

Caspase-6 = target: T6, Caspase-6 (Homo sapiens, UniProt P55212); test: human caspase-6 inhibitors, dose response, biochemical, VEID-R110 fluorescence, cherry-pick (AID 720632)
T6 sequence (P55212 whole entry): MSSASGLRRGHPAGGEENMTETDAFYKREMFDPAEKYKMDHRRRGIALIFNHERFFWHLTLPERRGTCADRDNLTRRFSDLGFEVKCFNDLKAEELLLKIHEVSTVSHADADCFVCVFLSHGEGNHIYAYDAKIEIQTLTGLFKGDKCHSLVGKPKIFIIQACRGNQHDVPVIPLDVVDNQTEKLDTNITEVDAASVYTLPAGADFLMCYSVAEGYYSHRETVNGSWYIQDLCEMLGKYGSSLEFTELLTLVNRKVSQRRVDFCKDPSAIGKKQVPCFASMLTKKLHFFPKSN

[14] = target: Mitochondrial peptide methionine sulfoxide reductase (Bos taurus, UniProt P54149); test: Absorbance-based biochemical high throughput dose response assay for activators of Methionine sulfoxide reductase A (MsrA).; assay type: functional
Sequence of Mitochondrial peptide methionine sulfoxide reductase (P54149 whole entry): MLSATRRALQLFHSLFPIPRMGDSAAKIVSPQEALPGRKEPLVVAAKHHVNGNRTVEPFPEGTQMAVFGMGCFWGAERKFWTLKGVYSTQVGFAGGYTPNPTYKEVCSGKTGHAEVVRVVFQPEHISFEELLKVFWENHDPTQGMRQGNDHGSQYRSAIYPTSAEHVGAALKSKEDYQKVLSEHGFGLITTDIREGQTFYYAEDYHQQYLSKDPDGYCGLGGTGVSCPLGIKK

Sequence of Glutathione-S-transferase (Q26513 whole entry): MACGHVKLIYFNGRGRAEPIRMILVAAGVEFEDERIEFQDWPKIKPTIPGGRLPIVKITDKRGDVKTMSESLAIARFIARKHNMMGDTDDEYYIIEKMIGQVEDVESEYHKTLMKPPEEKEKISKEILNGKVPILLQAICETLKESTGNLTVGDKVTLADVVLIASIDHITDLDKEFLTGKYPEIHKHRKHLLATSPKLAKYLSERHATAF

In the case of CCn1c(C)nc2cc(C(=O)N/N=C/c3ccc(O)c(O)c3O)ccc21, the IC50 [1] is reported as 45 µM (active), the EC50 [2] is reported as 104 µM (active) and the IC50 [3] is reported as > 54 µM (active). The IC50 (Genome polyprotein) was 21.7 µM (active), the IC50 (Nonstructural protein 1) was 16.6 µM (active) and the IC50 [4] was 7.02 µM (active). For the same compound, the IC50 [5] was 27.5 µM (active), the IC50 [6] was 8.47 µM (active) and the EC50 [7] was 1.6 µM (active).

For O=C(OCc1nnc(-c2ccccc2)o1)c1ccc([N+](=O)[O-])s1, the IC50 [8] was 24.2 µM (inactive), the AC50 (Caspase-3 [9]) was 6.9 µM (active) and the IC50 (Caspase-3 [10]) was 14.3 µM (active). For the same compound, the IC50 [11] was 6.79 µM (active), the AC50 (Caspase-9) was 18.4 µM (active) and the IC50 [12] was 10.1 µM (active). The IC50 [13] was 5.56 µM (active), the AC50 (Caspase-8) was 23.3 µM (active) and the IC50 (H9c2) was > 79 µM (inactive). The AC50 (Caspase-7) was 14.6 µM (active), the AC50 (Caspase-6) was 3.66 µM (active) and the EC50 [14] was 33.1 µM (inactive).
